Active and inactive are the calls of the source. The calls are words filed in the database; no cut-off is given here. Some results are limits rather than exact numbers.

The test system of data set [1] is Hepatitis C virus. The experiment in a line: Antiviral activity against Hepatitis C virus JFH-1 infected in human HuH7 cells assessed as inhibition of viral RNA replication after 3 days by quantitative real-time RT-PCR analysis. Particulars: for Activity: Hepacivirus hominis; for EC50 / EC90: JFH-1, Huh-7, 72 h. In kind it is functional, organism-based. Background: Quantitative PCR measures a nucleic acid by following its amplification.

Data set [2] can be described thus: Cytotoxicity against human HuH7 cells after 72 hrs by CellTiter 96 AQueous one solution cell proliferation assay. The class given is cell-based, Huh-7.
Data set [3] relates to Hepatitis C virus. Nature of the data set: Antiviral activity against Hepatitis C virus genotype 1b expressing NS5B RNA dependent RNA polymerase S282T mutant infected in human HuH7 cells after 48 hrs by luciferase reporter gene assay. The class given is functional, organism-based, Hepacivirus hominis. Conditions: Huh-7, 48 h. In general terms: Reporter assays use an easily measured gene product as a stand-in for the process of interest.

For data set [4], the system named is Mus musculus. Nature of the data set: Acute toxicity in Kunming mouse assessed as induction of damage to heart at 2 to 4 g/kg, po administered as single dose measured after 15 days. Conditions: in vivo, 360 h. In kind it is organism-based.
A short description of data set [5]: Cmax in Sprague-Dawley rat liver assessed as 1-((2R,3R,4R,5R)-3-fluoro-3-(fluoromethyl)-4-hydroxy-5-(hydroxymethyl)tetrahydrofuran-2-yl)pyrimidine-2,4(1H,3H)-dione triphosphate at 50 mg/kg administered via oral gavage by HPLC-MS/MS analysis. Conditions: in vivo. On the set-up: dose 50 mg/kg, route oral. In kind it is ADME, organism-based.
A short description of data set [6]: Half life in human liver S9 fraction at 1 mg/ml incubated up to 120 mins at 37 degC by HPLC analysis. In kind it is ADME, subcellular.
The test system of data set [7] is Mus musculus. Nature of the data set: Acute toxicity in Kunming mouse assessed as induction of damage to spleen at 2 to 4 g/kg, po administered as single dose measured after 15 days. In kind it is organism-based. Particulars: in vivo, 360 h.
For data set [8], the system named is Mus musculus. Nature of the data set: Acute toxicity in Kunming mouse assessed as induction of observable clinical toxic signs at 2 to 4 g/kg, po administered as single dose measured after 15 days. Particulars: in vivo, 360 h. In kind it is organism-based.
Data set [9] is described as follows: Half life in human plasma at 1 mg/ml incubated up to 24 hrs at 37 degC by HPLC analysis. The class given is ADME, cell-free.
Data set [10] has as its system Mus musculus. The experiment in a line: Acute toxicity in Kunming mouse assessed as induction of induction of damage to lung at 2 to 4 g/kg, po administered as single dose measured after 15 days. In kind it is organism-based. Particulars: in vivo, 360 h.
Data set [11] is described as follows: Half life in Sprague-Dawley rat liver assessed as 1-((2R,3R,4R,5R)-3-fluoro-3-(fluoromethyl)-4-hydroxy-5-(hydroxymethyl)tetrahydrofuran-2-yl)pyrimidine-2,4(1H,3H)-dione triphosphate at 50 mg/kg administered via oral gavage by HPLC-MS/MS analysis. In kind it is ADME, organism-based. Particulars: in vivo.
Data set [12] has as its system Mus musculus. Nature of the data set: Acute toxicity in Kunming mouse assessed as induction of damage to liver at 2 to 4 g/kg, po administered as single dose measured after 15 days. In kind it is organism-based. Conditions: in vivo, 360 h.
Data set [13] deals with Hepatitis C virus. Nature of the data set: Antiviral activity against Hepatitis C virus JFH-1 infected in human HuH7 cells assessed as inhibition of viral core protein levels at 1 uM by Western blot method. The class given is functional, organism-based. Particulars: Hepacivirus hominis. Background: In western blotting, separated proteins are transferred to a membrane and probed.

The subject of data set [14] is Mus musculus. Nature of the data set: Acute toxicity in Kunming mouse assessed as mortality at 2 to 4 g/kg, po administered as single dose measured after 15 days. Conditions: in vivo, 360 h. The class given is organism-based.
The nature of data set [15]: AUC (0 to t) in Sprague-Dawley rat liver assessed as 1-((2R,3R,4R,5R)-3-fluoro-3-(fluoromethyl)-4-hydroxy-5-(hydroxymethyl)tetrahydrofuran-2-yl)pyrimidine-2,4(1H,3H)-dione triphosphate at 50 mg/kg administered via oral gavage by HPLC-MS/MS analysis. In kind it is ADME, organism-based. Conditions: in vivo.
Data set [16] concerns Mus musculus. Nature of the data set: Acute toxicity in Kunming mouse assessed as change in body weight at 2 to 4 g/kg, po administered as single dose measured after 15 days. In kind it is organism-based. Conditions: in vivo, 360 h.
Data set [17] in a line: AUC (0 to infinity) in Sprague-Dawley rat liver assessed as 1-((2R,3R,4R,5R)-3-fluoro-3-(fluoromethyl)-4-hydroxy-5-(hydroxymethyl)tetrahydrofuran-2-yl)pyrimidine-2,4(1H,3H)-dione triphosphate at 50 mg/kg administered via oral gavage by HPLC-MS/MS analysis. On the set-up: dose 50 mg/kg, time infinity, route oral. The class given is ADME, organism-based. Particulars: in vivo.

Data set [18] has as its system Hepatitis C virus. Nature of the data set: Antiviral activity against Hepatitis C virus genotype 1b infected in human HuH7 cells after 48 hrs by luciferase reporter gene assay. The class given is functional, organism-based, Hepacivirus hominis. Particulars: Huh-7, 48 h.
The nature of data set [19]: Tmax in Sprague-Dawley rat liver assessed as 1-((2R,3R,4R,5R)-3-fluoro-3-(fluoromethyl)-4-hydroxy-5-(hydroxymethyl)tetrahydrofuran-2-yl)pyrimidine-2,4(1H,3H)-dione triphosphate at 50 mg/kg administered via oral gavage by HPLC-MS/MS analysis. In kind it is ADME, organism-based. Conditions: in vivo.
Data set [20] concerns Hepatitis C virus. The experiment in a line: Antiviral activity against Hepatitis C virus genotype 1a infected in human HuH7 cells after 48 hrs by luciferase reporter gene assay. In kind it is functional, organism-based, Hepacivirus hominis. Particulars: subtype 1a, Huh-7, 48 h.
Data set [21] deals with Mus musculus. Nature of the data set: Acute toxicity in Kunming mouse assessed as induction of damage to kidney at 2 to 4 g/kg, po administered as single dose measured after 15 days. Conditions: in vivo, 360 h. The class given is organism-based.
Data set [22] deals with Hepatitis C virus. The experiment in a line: Antiviral activity against Hepatitis C virus genotype 2a infected in human HuH7 cells after 48 hrs by luciferase reporter gene assay. In kind it is functional, organism-based, Hepacivirus hominis. Conditions: Huh-7, 48 h.
Data set [23] can be described thus: Half life in simulated gastric fluid at pH 1.2 at 1 mg/ml incubated up to 24 hrs at 37 degC by HPLC analysis. In kind it is ADME.
Data set [24] is described as follows: Half life in simulated intestinal fluid at pH 7.4 at 1 mg/ml incubated up to 24 hrs at 37 degC by HPLC analysis. In kind it is ADME.
A short description of data set [25]: Drug level in Sprague-Dawley rat liver treated with at 50 mg/kg, po 2-(((S)-(((2R,3R,4R,5R)-5-(2,4-dioxo-3,4-dihydropyrimidin-1(2H)-yl)-4-fluoro-4-(fluoromethyl)-3-hydroxytetrahydrofuran-2-yl)methoxy) (phenoxy)phosphoryl)amino) propanoate assessed as compound formation by HPLC-MS/MS analysis. The class given is ADME, organism-based. Particulars: in vivo.

With `CC(C)OC(=O)[C@H](C)N[P@](=O)(OC[C@H]1O[C@@H](n2ccc(=O)[nH]c2=O)[C@](C)(F)[C@@H]1O)Oc1ccccc1` [SOFOSBUVIR], in data set [1], the Activity entry was “Dose-dependent effect”; the EC50 (as a rule, the concentration giving half of the maximal effect) turned out to be 0.27 µM; the EC90 (commonly the concentration at which the effect reaches the 90% level) amounted to 0.83 µM. Moreover, in [2], the CC50 (in general, the concentration that lowers cell viability or growth by half) at 72 h is > 1000 µM.

With `CC(C)OC(=O)[C@H](C)N[P@](=O)(OC[C@H]1O[C@@H](n2ccc(=O)[nH]c2=O)[C@@](F)(CF)[C@@H]1O)Oc1ccccc1`, the EC50 is 1.13 µM in data set [3]; 0.18 µM in data set [1]; 0.24 µM in [18]; 0.31 µM in [20]; 0.54 µM in data set [22]. Moreover, the EC90 in [3] was determined as 7.7 µM; in data set [1] it was 0.74 µM; in data set [18], 0.5 µM; in data set [20], 1.26 µM; in data set [22], 3.05 µM. Moreover, the Activity entry in data set [4] was “Non-Toxic”; in data set [7], “Non-Toxic”; in [8], “Non-Toxic”; in data set [1], “Dose-dependent effect”; in [10] it was “Non-Toxic”; in [12] it was “Non-Toxic”. Moreover, the Activity entry in [14], in [16] and in [21] was “Non-Toxic” throughout. Also, the highest concentration (Cmax) – broadly, the maximum level reached in the sampled fluid or tissue – in data set [5] was found to be 1895 ng/g. Moreover, the half-life (commonly how long it takes for the measured level to halve) in data set [6] was 0.49 h. The half-life at 1 mg/ml is 17.3 h in [9], > 24 h in data set [23] and > 24 h in data set [24]. Besides, in data set [11], the t1/2 came to 3.73 h. Further, the result in [13] was Active. Moreover, in data set [15], the AUCt was 14540 ng·h/g. Besides, the AUC in [17] was found to be 15655 ng·h/g. Also, in data set [19], the Tmax (commonly the time at which the peak concentration occurs) turned out to be 5.83 h. Besides, in data set [2], the CC50 at 72 h was > 1000 µM.

As to `O=c1ccn([C@@H]2O[C@H](COP(=O)(O)OP(=O)(O)OP(=O)(O)O)[C@@H](O)[C@]2(F)CF)c(=O)[nH]1`, in data set [25], the Drug metabolism result is recorded as “Metabolite_Detected”.

On to `O=c1ccn([C@@H]2O[C@H](CO)[C@@H](O)[C@]2(F)CF)c(=O)[nH]1`, for which the CC50 at 72 h in data set [2] is > 1000 µM.

The values are drawn from ChEMBL document CHEMBL4251570, “Synthesis and biological evaluation of a novel β-D-2'-deoxy-2'-α-fluoro-2'-β-C-(fluoromethyl)uridine phosphoramidate prodrug for the treatment of hepatitis C virus infection” (Eur J Med Chem, 2018).
